The conditions of data set [1]: background art; mass unit printed as an image character; cited from earlier work.
Data set [2] is described as follows: Dynamic solubility test in water. In kind it is physicochemical. Conditions: thermodynamic from solid, 100 mL water, 37° C., 200 rpm, read-out: Solubility of tacrolimus (mean ± SD). On the procedure:
The excessive specimens were loaded and appropriate aliquots were collected after 0.5, 1, 2, 4, and 8 hours, and the samples were analyzed by high performance liquid chromatography.

In brackets after ≈: the same amount, converted by molar mass.

Take `C=CC[C@@H]1/C=C(\C)C[C@H](C)C[C@H](OC)[C@H]2O[C@@](O)(C(=O)C(=O)N3CCCC[C@H]3C(=O)O[C@H](/C(C)=C/[C@@H]3CC[C@@H](O)[C@H](OC)C3)[C@H](C)[C@@H](O)CC1=O)[C@H](C)C[C@@H]2OC` [Control, tacrolimus]: the “Solubility of tacrolimus in water” value in data set [1] is 1˜2 /mL. For the same compound, the solubility at 1 h in data set [2] (1 hr) worked out at 0.28 ± 0.05 µg/mL (≈ 0.348 µM). Also, the solubility at 2 h in data set [2] (2 hr) was 0.68 ± 0.02 µg/mL (≈ 0.846 µM). Further, in data set [2] (4 hr), the solubility at 4 h amounted to 0.74 ± 0.01 µg/mL (≈ 0.92 µM). The solubility at 8 h in data set [2] (8 hr) was 0.96 ± 0.05 µg/mL (≈ 1.19 µM).

As a reminder, the solubility is the dissolved amount per volume that the medium holds.
